# Results: publication PMC12002301, “Discovery and functional characterization of a bombesin-type neuropeptide signaling system in an invertebrate” (Proceedings of the National Academy of Sciences of the …, 2025)
# Tested on: cardiac stomach preparations
# Experiment: In vitro contraction of cardiac stomach preparations
# Parameters: species or system Asterias rubens
# Details: words, ArBN 10^-9 to 10^-6 M
# Procedure: ArBN (EPRRNYNRVFGPTY-NH2), ArBN5-14 (NYNRVFGPTY-NH2), and ArBNP65-81 (EPMPSSLALYIANLSP-NH2), were tested for effects on in vitro cardiac stomach and tube foot preparations from A. rubens. The preparations were dissected as described previously ([43], [59]–[61]), with the organs immersed in ice-cold artificial seawater during dissection. A description of the methods employed for investigation of in vitro effects of ArBN on cardiac stomach and tube foot preparations from A. rubens is included in SI Appendix, SI Methods. […]
# Wax was removed from slides using xylene (3 × 10 min) and then slides were immersed in 100% ethanol (2 × 10 min). 0.3% hydrogen peroxide (VWR Chemicals, UK) in methanol was used to quench endogenous peroxidases for 30 min and then an ethanol series (90%, 70%, 50%), distilled water and PBST were used to rehydrate the tissue sections. 5% goat serum (Sigma-Aldrich, UK) made up in PBST was used for blocking for 2 h at room temperature. […]
# All the dissected preparations were set up in an aerated organ bath filled with 20 ml artificial seawater maintained at approximately 11°C. Changes in the contractile state of preparations were detected by the transducer, which was linked via a bridge amplifier (FE221 Bridge Amp, ADInstruments Ltd, Oxford, UK) to data acquisition hardware (PowerLab 2/36, ADInstruments Ltd, Oxford, UK). […]
row,Substance,effect on cardiac stomach preparations
1,"EPMPSSLALYIANLSP-NH2 [ArBNP65-81, C-terminally amidated 16-residue peptide predicted to be derived from residues 65 to 81 of ArBNP]",neither ArBN5-14 nor ArBNP65-81 had any observable effect
2,"NYNRVFGPTY-NH2 [ArBN5-14, C-terminally amidated 10-residue peptide corresponding to the C-terminal region of ArBN]",neither ArBN5-14 nor ArBNP65-81 had any observable effect
